Data reported in patent publication US7932284B2, “Indole sulfonamide modulators of progesterone receptors” (Eli Lilly and Company, priority 2006, dated 2011).
pKi: −log10 of the molar value.

Tests used:
[1] = biological target: T1, human AR (androgen receptor) (Homo sapiens, UniProt P10275); assay: AR competition binding assay (HEK293 cell lysate); details: 0.36 nM 3H-methyltrienolone, 293-AR lysate
T1 construct: expressed in transfected cells; host or cells: HEK293
T1 sequence (P10275 1-920): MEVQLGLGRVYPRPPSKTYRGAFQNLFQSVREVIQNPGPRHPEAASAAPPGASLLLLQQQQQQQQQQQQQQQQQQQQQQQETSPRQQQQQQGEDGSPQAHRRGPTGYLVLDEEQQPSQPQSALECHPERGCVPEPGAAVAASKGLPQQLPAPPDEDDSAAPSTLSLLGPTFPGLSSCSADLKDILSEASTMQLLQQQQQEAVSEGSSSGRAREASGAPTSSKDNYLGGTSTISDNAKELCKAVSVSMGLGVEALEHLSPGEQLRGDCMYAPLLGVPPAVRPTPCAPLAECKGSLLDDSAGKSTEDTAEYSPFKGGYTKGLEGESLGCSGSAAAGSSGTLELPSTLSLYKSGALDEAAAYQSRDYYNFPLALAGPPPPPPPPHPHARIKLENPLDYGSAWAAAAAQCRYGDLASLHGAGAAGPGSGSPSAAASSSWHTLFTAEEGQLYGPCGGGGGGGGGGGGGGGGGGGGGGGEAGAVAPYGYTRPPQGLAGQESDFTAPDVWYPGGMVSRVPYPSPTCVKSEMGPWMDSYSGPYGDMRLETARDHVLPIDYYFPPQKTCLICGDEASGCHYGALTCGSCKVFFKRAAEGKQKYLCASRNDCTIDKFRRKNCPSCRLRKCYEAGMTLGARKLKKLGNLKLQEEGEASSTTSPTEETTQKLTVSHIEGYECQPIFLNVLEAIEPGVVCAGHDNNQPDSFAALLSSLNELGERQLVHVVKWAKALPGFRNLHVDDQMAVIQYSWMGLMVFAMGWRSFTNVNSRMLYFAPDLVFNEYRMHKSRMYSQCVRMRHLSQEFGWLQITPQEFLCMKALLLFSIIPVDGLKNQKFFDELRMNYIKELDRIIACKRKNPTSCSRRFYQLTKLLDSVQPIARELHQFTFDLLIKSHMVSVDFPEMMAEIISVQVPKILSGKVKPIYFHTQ
Procedure: (§1) Cell lysates from HEK293 cells overexpressing human GR (glucocorticoid receptor), AR (androgen receptor), MR (mineralocorticoid receptor) or PR (progesterone receptor) are used for competition binding assays to determine Ki values for compounds of interest. Briefly, competition binding assays are run in a buffer containing 20 mM HEPES, pH 7.6, 0.2 mM EDTA, 75 mM NaCl, 1.5 mM MgCl2, 20% glycerol, 20 mM sodium molybdate, 0.2 mM DTT, 20 ug/ml aprotinin, and 20 ug/ml leupeptin, using either 0.3 nM ^3H-dexamethasone for GR binding, 0.36 nM ^3H-methyltrienolone for AR binding, 0.25 nM ^3H-aldosterone for MR binding, or 0.29 nM ^3H-methyltrienolone for PR binding, and either 20 ug 293-GR lysate, 22 ug 293-AR lysate, 20 ug 293-MR lysate or 40 ug 293-PR lysate per well. Competing compounds are added at various concentrations in half-log increments. Non-specific binding is determined in the presence of 500 nM dexamethasone for GR binding, 500 nM aldosterone for MR binding, or 500 nM methyltrienolone for AR and PR binding. The binding reaction (140 μl) is incubated overnight at 4° C., then 70 μl of cold charcoal-dextran buffer (containing per 50 ml of assay buffer, 0.75 g of charcoal and 0.25 g of dextran) is added to each reaction. Plates are mixed 8 minutes on an orbital shaker at 4° C. Plates are then centrifuged at 3,000 rpm at 4° C. for 10 minutes. An aliquot of 120 μl of the mixture is transferred to another 96-well plate and 175 μl of Wallac Optiphase “Hisafe 3” scintillation fluid is added to each well. Plates are sealed and shaken vigorously on an orbital shaker. After an incubation of 2 hrs, plates are read in a Wallac Microbeta counter. […] The Kd for ^3H-dexamethasone for GR binding, ^3H-methyltrienolone for AR binding, ^3H-aldosterone for MR binding, or ^3H-methyltrienolone for PR binding, is determined by saturation binding. The IC50 values for compounds are converted to Ki using Cheng-Prusoff equation and the Kd determined by saturation binding assay.

[2] = biological target: T2, human PR (progesterone receptor) (Homo sapiens, UniProt P06401); assay: PR competition binding assay (HEK293 cell lysate); details: 0.29 nM 3H-methyltrienolone, 293-PR lysate
T2 construct: expressed in transfected cells; host or cells: HEK293
T2 sequence (P06401 1-933): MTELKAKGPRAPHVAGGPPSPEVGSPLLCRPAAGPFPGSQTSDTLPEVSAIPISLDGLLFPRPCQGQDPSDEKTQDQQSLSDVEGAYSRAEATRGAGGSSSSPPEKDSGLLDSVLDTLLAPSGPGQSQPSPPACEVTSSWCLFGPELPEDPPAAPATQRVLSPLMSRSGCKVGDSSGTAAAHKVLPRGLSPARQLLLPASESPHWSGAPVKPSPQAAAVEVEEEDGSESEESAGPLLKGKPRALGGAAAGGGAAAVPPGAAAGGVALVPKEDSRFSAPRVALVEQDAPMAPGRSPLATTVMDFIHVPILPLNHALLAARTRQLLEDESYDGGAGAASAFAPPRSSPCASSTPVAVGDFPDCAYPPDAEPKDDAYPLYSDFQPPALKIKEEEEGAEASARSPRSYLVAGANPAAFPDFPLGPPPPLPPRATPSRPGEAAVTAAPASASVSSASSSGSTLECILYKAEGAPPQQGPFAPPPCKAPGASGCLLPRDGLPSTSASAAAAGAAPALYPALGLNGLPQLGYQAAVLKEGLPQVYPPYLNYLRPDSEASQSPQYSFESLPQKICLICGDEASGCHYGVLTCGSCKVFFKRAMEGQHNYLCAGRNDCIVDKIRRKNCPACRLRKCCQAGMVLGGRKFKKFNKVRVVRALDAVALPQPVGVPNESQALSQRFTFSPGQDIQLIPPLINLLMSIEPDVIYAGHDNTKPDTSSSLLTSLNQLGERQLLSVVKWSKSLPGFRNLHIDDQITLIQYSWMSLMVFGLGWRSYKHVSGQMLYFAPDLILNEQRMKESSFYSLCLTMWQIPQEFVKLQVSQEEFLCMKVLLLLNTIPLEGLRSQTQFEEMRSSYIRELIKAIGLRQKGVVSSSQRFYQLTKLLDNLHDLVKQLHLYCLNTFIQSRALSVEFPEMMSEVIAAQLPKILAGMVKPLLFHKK
Procedure: as §1
More preferably the compounds of the present invention have PR binding value K; of <10 nM.

| pKi [1] | pKi [2] | Compound |
| --- | --- | --- |
| < 6.00 | > 7.30 | CC(C)n1cc(-c2ccc3c(c2)COC3=O)c2ccc(NS(C)(=O)=O)cc21 [Example 97, N-[1-Isopropyl-3-(1-oxo-1,3-dihydro-isobenzofuran-5-yl)-1H-indol-6-yl]-methanesulfonamide] |
| < 6.00 | > 7.30 | CC(C)n1cc(-c2ccc(C#N)cc2)c2ccc(NS(=O)(=O)C(F)(F)F)cc21 [Example 98, N-[3-(4-Cyano-phenyl)-1-isopropyl-1H-indol-6-yl]-C,C,C-trifluoro-methanesulfonamide] |
| < 6.00 | 7.00 to 7.30 | CC(C)n1cc(-c2ccc(C#N)cc2)c2ccc(NS(=O)(=O)N3CCOCC3)cc21 [Example 100, Morpholine-4-sulfonic acid [3-(4-cyano-phenyl)-1-isopropyl-1H-indol-6-yl]-amide] |
| < 6.00 | 7.00 to 7.30 | CC(C)n1cc(-c2ccc3c(cnn3C)c2)c2ccc(NS(C)(=O)=O)cc21 [Example 107, N-[1-Isopropyl-3-(1-methyl-1H-indazol-5-yl)-1H-indol-6-yl]-methanesulfonamide] |
